The record followed here is patent US10202339B2, “Therapeutic compounds and compositions” (AGIOS PHARMACEUTICALS, INC., priority 2012, dated 2019).

What is called IC50 is the concentration that gives 50% inhibition.

The target of this test is IDH1 R132H (Homo sapiens (Human), UniProt O75874, R132H). Kind of test: In vitro assay for IDH1m (R132H) inhibitors, NADPH depletion with resazurin/resorufin detection. The test is classed as biochemical. Particulars: IDH1 R132H enzyme, 50 minutes at room temperature; read-out: IDH R132H IC50. The protocol: Assays were conducted in a volume of 76 μl assay buffer (150 mM NaCl, 10 mM MgCl2, 20 mM Tris pH 7.5, 0.03% bovine serum albumin) as follows in a standard 384-well plate: To 25 ul of substrate mix (8 uM NADPH, 2 mM aKG), 1 μl of test compound was added in DMSO. The plate was centrifuged briefly, and then 25 μl of enzyme mix was added (0.2 μg/ml IDH1 R132H) followed by a brief centrifugation and shake at 100 RPM. The reaction was incubated for 50 minutes at room temperature, then 25 μl of detection mix (30 μM resazurin, […]) was added and the mixture further incubated for 5 minutes at room temperature. The conversion of resazurin to resorufin was detected by fluorescent spectroscopy at Ex544 Em590 c/o 590.
Chain of IDH1 R132H (O75874 whole entry R132H): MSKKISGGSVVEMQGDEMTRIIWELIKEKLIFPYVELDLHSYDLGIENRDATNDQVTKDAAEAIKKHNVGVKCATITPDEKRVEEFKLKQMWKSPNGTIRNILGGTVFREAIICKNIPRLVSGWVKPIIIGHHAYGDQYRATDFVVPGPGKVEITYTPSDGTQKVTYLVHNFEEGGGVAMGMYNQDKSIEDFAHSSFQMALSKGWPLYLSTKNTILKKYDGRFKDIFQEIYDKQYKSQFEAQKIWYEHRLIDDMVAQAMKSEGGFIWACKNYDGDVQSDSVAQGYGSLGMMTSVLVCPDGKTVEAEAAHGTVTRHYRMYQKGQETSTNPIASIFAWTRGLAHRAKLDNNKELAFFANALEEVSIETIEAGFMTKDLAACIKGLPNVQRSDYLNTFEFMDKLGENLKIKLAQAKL
Representative compounds of formula (I) set forth in Tables 1 and 2 were tested in this assay and the results are set forth below in Table 4.
For orientation: The colour change of resazurin is a common sign of viable cells or microbes.

For `Cc1ccc(NC(=O)Nc2cccc(S(=O)(=O)Nc3ccc(Cl)cc3)c2)cc1S(=O)(=O)Nc1ccccc1` [Compound 335], the IC50 fell in the range of 1 to 10 µM.

As for `Cc1ccc(NC(=O)Nc2ccc(C)c(S(=O)(=O)Nc3ccc(Cl)cc3)c2)cc1S(=O)(=O)Nc1ccc(Cl)cc1` [Compound 336], the IC50 lay in the range of 1 to 10 µM.

For `O=C(Nc1cccc(C(F)(F)F)c1)Nc1cc(S(=O)(=O)Nc2ccccc2)ccc1-c1ccsc1` [Compound 351, N-phenyl-4-(thiophen-3-yl)-3-(3-(3-(trifluoromethyl)phenyl)ureido)benzenesulfonamide], the IC50 lay in the range of 1 to 10 µM.

Take `Cc1ccc(NC(=O)Nc2cccc(C(F)(F)F)c2)cc1S(=O)(=O)Nc1cccc(O)c1` [compound 303]: the IC50 lay in the range of 1 to 10 µM.

On to “N-(1H-benzo[d]imidazol-7-yl)-2-methyl-5-(3-(3-(trifluoromethyl)phenyl)ureido)benzenesulfonamide [Compound 319]”, for which the IC50 is 1 to 10 µM.

“N-(1H-indol-7-yl)-2-methyl-5-(3-(3-(trifluoromethyl)phenyl)ureido)benzenesulfonamide [Compound 317]”: the IC50 is 1 to 10 µM.
